The results in this text go back to ChEMBL document CHEMBL4619712, “Double-component diazeniumdiolate derivatives as anti-cancer agents” (Bioorg Med Chem, 2020).

A value given as a limit tells only on which side of the number the result lay.

For one series, the system named is BT-474. The series can be described thus: Anticancer activity against human BT474 cells assessed as inhibition of cell growth after 72 hrs by MTT or MTS assay. In kind it is functional, cell-based. The conditions noted are these: BT-474, 72 h. A general note: Formazan colour is commonly taken as a measure of viable cells.
The test system of another series is Jurkat E6.1. Put plainly: Anticancer activity against human Jurkat E6-1 cells assessed as inhibition of cell growth after 72 hrs by MTT or MTS assay. In kind it is functional, cell-based. Conditions: Jurkat E6.1, 72 h.
The subject of the next series is CCRF-CEM. The series can be described thus: Anticancer activity against human CCRF-CEM cells assessed as inhibition of cell growth after 72 hrs by MTT or MTS assay. In kind it is functional, cell-based.
Another series concerns MDA-MB-231. Put plainly: Anticancer activity against human MDA-MB-231 cells assessed as inhibition of cell growth after 72 hrs by MTT or MTS assay. The class given is functional, cell-based. The conditions noted are these: MDA-MB-231, 72 h.
The next series concerns A549. The series can be described thus: Anticancer activity against human A549 cells assessed as inhibition of cell growth after 72 hrs by MTT or MTS assay. The conditions noted are these: A549, 72 h. In kind it is functional, cell-based.
The nature of series [1]: Prodrug conversion assessed as Escherichia coli GST catalyzed NO release at 1 uM measured after 5 hrs in presence of GSH by DAF-FM DA reagent based fluorescence spectrophotometric analysis. The class given is ADME.

The IC50 is the concentration needed to halve the response being measured. Take `O=[N+]([O-])c1ccc(O/N=[N+](\[O-])N2CCN(CCCN3CCN(/[N+]([O-])=N/Oc4ccc([N+](=O)[O-])cc4[N+](=O)[O-])CC3)CC2)c([N+](=O)[O-])c1`: the IC50 with BT-474 was 10.8 µM; in the series with Jurkat E6.1, 4.06 µM; with CCRF-CEM, 3.73 µM; in the series with MDA-MB-231, above 20 µM; in the series on A549, 18.8 µM. Moreover, in series [1], the “fold change (FC)” value stood at 2.

In the case of `CCOC(=O)N1CCN(/[N+]([O-])=N/Oc2ccc([N+](=O)[O-])cc2[N+](=O)[O-])CC1`, the concentration for half-maximal inhibition (IC50) amounted to 3.66 µM in the series on BT-474; 0.92 µM in the series with Jurkat E6.1; 0.89 µM in the series with CCRF-CEM; 7.93 µM in the series with MDA-MB-231; 2.11 µM with A549.
